system: a variety of test species; test: Pre-emergence herbicidal activity (glasshouse, sprayed one day after sowing, evaluated after 13 days); format: in vivo; design: key: 5=total damage to plant; 0=no damage to plant; settings: ABUTH, application pre-emergence, rate 1000 g/Ha, scale 0-5
Method in brief: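 Seeds sown in standard soil in pots, sprayed one day later (pre-emergence) with aqueous solution from acetone/water (50:50) formulation with 0.5% Tween 20. Glasshouse at 24/16 °C day/night, 14 h light, 65% humidity, watered twice daily. Damage scored after 13 days, 0 (none) to 5 (total).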

Compound | Pre-emergence herbicidal damage score, ABUTH
CCC(C)(C)c1cc(N2C(=O)C(Cl)=C(C)C2O)no1 (centres unmarked) [A29] | 5
CC1=C(Cl)C(=O)N(c2cc(C(C)c3ccccc3)on2)C1O (centres unmarked) [A30] | 2
CC1=C(Cl)C(=O)N(c2noc(C(C)(C)C)c2C#N)C1O (centres unmarked) [A31, 5-tert-butyl-3-(4-chloro-2-hydroxy-3-methyl-5-oxo-2H-pyrrol-1-yl)isoxazole-4-carbonitrile] | 5
C=CCOCC(C)(C)c1cc(N2C(=O)C(Cl)=C(C)C2O)no1 (centres unmarked) [A33] | 3
CCOCC(C)(C)c1cc(N2C(=O)C(Cl)=C(C)C2O)no1 (centres unmarked) [A34] | 5

same assay, conditions: ALOMY, application pre-emergence, rate 1000 g/Ha, scale 0-5

Compound | Pre-emergence herbicidal damage score, ALOMY
CCC(C)(C)c1cc(N2C(=O)C(Cl)=C(C)C2O)no1 (centres unmarked) [A29] | 3
CC1=C(Cl)C(=O)N(c2cc(C(C)c3ccccc3)on2)C1O (centres unmarked) [A30] | 2
CC1=C(Cl)C(=O)N(c2noc(C(C)(C)C)c2C#N)C1O (centres unmarked) [A31, 5-tert-butyl-3-(4-chloro-2-hydroxy-3-methyl-5-oxo-2H-pyrrol-1-yl)isoxazole-4-carbonitrile] | 3
C=CCOCC(C)(C)c1cc(N2C(=O)C(Cl)=C(C)C2O)no1 (centres unmarked) [A33] | 2
CCOCC(C)(C)c1cc(N2C(=O)C(Cl)=C(C)C2O)no1 (centres unmarked) [A34] | 3

same assay, conditions: AMARE, application pre-emergence, rate 1000 g/Ha, scale 0-5

Compound | Pre-emergence herbicidal damage score, AMARE
CCC(C)(C)c1cc(N2C(=O)C(Cl)=C(C)C2O)no1 (centres unmarked) [A29] | 5
CC1=C(Cl)C(=O)N(c2cc(C(C)c3ccccc3)on2)C1O (centres unmarked) [A30] | 4
CC1=C(Cl)C(=O)N(c2noc(C(C)(C)C)c2C#N)C1O (centres unmarked) [A31, 5-tert-butyl-3-(4-chloro-2-hydroxy-3-methyl-5-oxo-2H-pyrrol-1-yl)isoxazole-4-carbonitrile] | 5
C=CCOCC(C)(C)c1cc(N2C(=O)C(Cl)=C(C)C2O)no1 (centres unmarked) [A33] | 5
CCOCC(C)(C)c1cc(N2C(=O)C(Cl)=C(C)C2O)no1 (centres unmarked) [A34] | 5

same assay, conditions: ECHCG, application pre-emergence, rate 1000 g/Ha, scale 0-5

Compound | Pre-emergence herbicidal damage score, ECHCG
CCC(C)(C)c1cc(N2C(=O)C(Cl)=C(C)C2O)no1 (centres unmarked) [A29] | 5
CC1=C(Cl)C(=O)N(c2cc(C(C)c3ccccc3)on2)C1O (centres unmarked) [A30] | 1
CC1=C(Cl)C(=O)N(c2noc(C(C)(C)C)c2C#N)C1O (centres unmarked) [A31, 5-tert-butyl-3-(4-chloro-2-hydroxy-3-methyl-5-oxo-2H-pyrrol-1-yl)isoxazole-4-carbonitrile] | 5
C=CCOCC(C)(C)c1cc(N2C(=O)C(Cl)=C(C)C2O)no1 (centres unmarked) [A33] | 4
CCOCC(C)(C)c1cc(N2C(=O)C(Cl)=C(C)C2O)no1 (centres unmarked) [A34] | 5

same assay, conditions: SETFA, application pre-emergence, rate 1000 g/Ha, scale 0-5

Compound | Pre-emergence herbicidal damage score, SETFA
CCC(C)(C)c1cc(N2C(=O)C(Cl)=C(C)C2O)no1 (centres unmarked) [A29] | 4
CC1=C(Cl)C(=O)N(c2cc(C(C)c3ccccc3)on2)C1O (centres unmarked) [A30] | 1
CC1=C(Cl)C(=O)N(c2noc(C(C)(C)C)c2C#N)C1O (centres unmarked) [A31, 5-tert-butyl-3-(4-chloro-2-hydroxy-3-methyl-5-oxo-2H-pyrrol-1-yl)isoxazole-4-carbonitrile] | 5
C=CCOCC(C)(C)c1cc(N2C(=O)C(Cl)=C(C)C2O)no1 (centres unmarked) [A33] | 3
CCOCC(C)(C)c1cc(N2C(=O)C(Cl)=C(C)C2O)no1 (centres unmarked) [A34] | 4

same assay, conditions: ZEAMX, application pre-emergence, rate 1000 g/Ha, scale 0-5

Compound | Pre-emergence herbicidal damage score, ZEAMX
CCC(C)(C)c1cc(N2C(=O)C(Cl)=C(C)C2O)no1 (centres unmarked) [A29] | 1
CC1=C(Cl)C(=O)N(c2cc(C(C)c3ccccc3)on2)C1O (centres unmarked) [A30] | 1
CC1=C(Cl)C(=O)N(c2noc(C(C)(C)C)c2C#N)C1O (centres unmarked) [A31, 5-tert-butyl-3-(4-chloro-2-hydroxy-3-methyl-5-oxo-2H-pyrrol-1-yl)isoxazole-4-carbonitrile] | 3
C=CCOCC(C)(C)c1cc(N2C(=O)C(Cl)=C(C)C2O)no1 (centres unmarked) [A33] | 3
CCOCC(C)(C)c1cc(N2C(=O)C(Cl)=C(C)C2O)no1 (centres unmarked) [A34] | 2

system: a variety of test species; test: Post-emergence herbicidal activity (glasshouse, sprayed after 8 days cultivation, evaluated after 13 days); format: in vivo; design: key: 5=total damage to plant; 0=no damage to plant; settings: Abutilon theophrasti, rate 1000 g/Ha, scale 0-5
Method in brief: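 Seeds were sown in standard soil and cultivated for 8 days under controlled glasshouse conditions. Seedlings were then sprayed with an aqueous solution of the formulated compound containing 0.5% Tween 20. Injury was rated after a further 13 days, where 5 indicated total damage.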

Compound | ABUTH (Abutilon theophrasti) damage score, application post-emergence
CCC(C)(C)c1cc(N2C(=O)C(Cl)=C(C)C2O)no1 (centres unmarked) [A29] | 5
CC1=C(Cl)C(=O)N(c2cc(C(C)c3ccccc3)on2)C1O (centres unmarked) [A30] | 5
CC1=C(Cl)C(=O)N(c2noc(C(C)(C)C)c2C#N)C1O (centres unmarked) [A31, 5-tert-butyl-3-(4-chloro-2-hydroxy-3-methyl-5-oxo-2H-pyrrol-1-yl)isoxazole-4-carbonitrile] | 5
C=CCOCC(C)(C)c1cc(N2C(=O)C(Cl)=C(C)C2O)no1 (centres unmarked) [A33] | 5
CCOCC(C)(C)c1cc(N2C(=O)C(Cl)=C(C)C2O)no1 (centres unmarked) [A34] | 5

same assay, conditions: Alopecurus myosuroides, rate 1000 g/Ha, scale 0-5

Compound | ALOMY (Alopecurus myosuroides) damage score, application post-emergence
CCC(C)(C)c1cc(N2C(=O)C(Cl)=C(C)C2O)no1 (centres unmarked) [A29] | 4
CC1=C(Cl)C(=O)N(c2cc(C(C)c3ccccc3)on2)C1O (centres unmarked) [A30] | 3
CC1=C(Cl)C(=O)N(c2noc(C(C)(C)C)c2C#N)C1O (centres unmarked) [A31, 5-tert-butyl-3-(4-chloro-2-hydroxy-3-methyl-5-oxo-2H-pyrrol-1-yl)isoxazole-4-carbonitrile] | 5
C=CCOCC(C)(C)c1cc(N2C(=O)C(Cl)=C(C)C2O)no1 (centres unmarked) [A33] | 4
CCOCC(C)(C)c1cc(N2C(=O)C(Cl)=C(C)C2O)no1 (centres unmarked) [A34] | 4

same assay, conditions: Amaranthus retroflexus, rate 1000 g/Ha, scale 0-5

Compound | AMARE (Amaranthus retroflexus) damage score, application post-emergence
CCC(C)(C)c1cc(N2C(=O)C(Cl)=C(C)C2O)no1 (centres unmarked) [A29] | 5
CC1=C(Cl)C(=O)N(c2cc(C(C)c3ccccc3)on2)C1O (centres unmarked) [A30] | 5
CC1=C(Cl)C(=O)N(c2noc(C(C)(C)C)c2C#N)C1O (centres unmarked) [A31, 5-tert-butyl-3-(4-chloro-2-hydroxy-3-methyl-5-oxo-2H-pyrrol-1-yl)isoxazole-4-carbonitrile] | 5
C=CCOCC(C)(C)c1cc(N2C(=O)C(Cl)=C(C)C2O)no1 (centres unmarked) [A33] | 5
CCOCC(C)(C)c1cc(N2C(=O)C(Cl)=C(C)C2O)no1 (centres unmarked) [A34] | 5

same assay, conditions: Echinochloa crus-galli, rate 1000 g/Ha, scale 0-5

Compound | ECHCG (Echinochloa crus-galli) damage score, application post-emergence
CCC(C)(C)c1cc(N2C(=O)C(Cl)=C(C)C2O)no1 (centres unmarked) [A29] | 5
CC1=C(Cl)C(=O)N(c2cc(C(C)c3ccccc3)on2)C1O (centres unmarked) [A30] | 5
CC1=C(Cl)C(=O)N(c2noc(C(C)(C)C)c2C#N)C1O (centres unmarked) [A31, 5-tert-butyl-3-(4-chloro-2-hydroxy-3-methyl-5-oxo-2H-pyrrol-1-yl)isoxazole-4-carbonitrile] | 5
C=CCOCC(C)(C)c1cc(N2C(=O)C(Cl)=C(C)C2O)no1 (centres unmarked) [A33] | 5
CCOCC(C)(C)c1cc(N2C(=O)C(Cl)=C(C)C2O)no1 (centres unmarked) [A34] | 5

same assay, conditions: Setaria faberi, rate 1000 g/Ha, scale 0-5

Compound | SETFA (Setaria faberi) damage score, application post-emergence
CCC(C)(C)c1cc(N2C(=O)C(Cl)=C(C)C2O)no1 (centres unmarked) [A29] | 4
CC1=C(Cl)C(=O)N(c2cc(C(C)c3ccccc3)on2)C1O (centres unmarked) [A30] | 4
CC1=C(Cl)C(=O)N(c2noc(C(C)(C)C)c2C#N)C1O (centres unmarked) [A31, 5-tert-butyl-3-(4-chloro-2-hydroxy-3-methyl-5-oxo-2H-pyrrol-1-yl)isoxazole-4-carbonitrile] | 5
C=CCOCC(C)(C)c1cc(N2C(=O)C(Cl)=C(C)C2O)no1 (centres unmarked) [A33] | 4
CCOCC(C)(C)c1cc(N2C(=O)C(Cl)=C(C)C2O)no1 (centres unmarked) [A34] | 4

same assay, conditions: Zea mays, rate 1000 g/Ha, scale 0-5

Compound | ZEAMX (Zea mays) damage score, application post-emergence
CCC(C)(C)c1cc(N2C(=O)C(Cl)=C(C)C2O)no1 (centres unmarked) [A29] | 3
CC1=C(Cl)C(=O)N(c2cc(C(C)c3ccccc3)on2)C1O (centres unmarked) [A30] | 2
CC1=C(Cl)C(=O)N(c2noc(C(C)(C)C)c2C#N)C1O (centres unmarked) [A31, 5-tert-butyl-3-(4-chloro-2-hydroxy-3-methyl-5-oxo-2H-pyrrol-1-yl)isoxazole-4-carbonitrile] | 4
C=CCOCC(C)(C)c1cc(N2C(=O)C(Cl)=C(C)C2O)no1 (centres unmarked) [A33] | 5
CCOCC(C)(C)c1cc(N2C(=O)C(Cl)=C(C)C2O)no1 (centres unmarked) [A34] | 5

system: not given; test: not given; settings: not given

Compound | melting point [°C]
CCC(C)(C)c1cc(N2C(=O)C(Cl)=C(C)C2O)no1 (centres unmarked) [A29] | 103 to 105
CC1=C(Cl)C(=O)N(c2cc(C(C)c3ccccc3)on2)C1O (centres unmarked) [A30] | 118 to 120
CC1=C(Cl)C(=O)N(c2noc(C(C)(C)C)c2C#N)C1O (centres unmarked) [A31, 5-tert-butyl-3-(4-chloro-2-hydroxy-3-methyl-5-oxo-2H-pyrrol-1-yl)isoxazole-4-carbonitrile] | 174 to 176
C=CCOCC(C)(C)c1cc(N2C(=O)C(Cl)=C(C)C2O)no1 (centres unmarked) [A33] | 66 to 68
CCOCC(C)(C)c1cc(N2C(=O)C(Cl)=C(C)C2O)no1 (centres unmarked) [A34] | 99 to 101

— US9936701B2, “Herbicidal compounds” (Syngenta Participations AG, priority 2013, dated 2018)
